Source: patent publication US11873298B2, “Compounds and uses thereof” (JANSSEN PHARMACEUTICA NV, priority 2017, dated 2024)
“And” between values parts separate entries of the source, which are not always exact repeats. Equal values may be shown once.

Experiments:
Type in all cases: cell-based
SCD1 = biological target: T1, SCD1 (Homo sapiens, UniProt O00767); test: Growth inhibition of humanized yeast strain expressing SCD1 as sole desaturase; settings: humanized yeast strain expressing SCD1
T1 construct: host or cells: S. cerevisiae ole1Δ strain (W303 pdr1Δ pdr3Δ background), plasmid pRS316 with TDH3 promoter and CYC1 terminator
T1 sequence (O00767 1-359): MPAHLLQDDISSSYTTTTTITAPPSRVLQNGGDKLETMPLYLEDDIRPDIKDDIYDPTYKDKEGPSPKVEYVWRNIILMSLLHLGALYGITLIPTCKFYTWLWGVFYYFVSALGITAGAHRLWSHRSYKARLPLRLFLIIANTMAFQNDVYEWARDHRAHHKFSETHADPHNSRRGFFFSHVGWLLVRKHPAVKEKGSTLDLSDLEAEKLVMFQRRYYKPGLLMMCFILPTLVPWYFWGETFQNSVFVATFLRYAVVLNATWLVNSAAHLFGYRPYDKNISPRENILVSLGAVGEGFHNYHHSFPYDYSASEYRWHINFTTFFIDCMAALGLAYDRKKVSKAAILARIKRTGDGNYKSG
In short: (§1)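 ole1Δ yeast (W303 pdr1Δ pdr3Δ background) carrying plasmid-borne Ole1, SCD1 or SCD5, grown in uracil-free media; cultures pre-grown in raffinose, seeded at 2× density 0.02 in galactose media with compound. Growth read as OD600 after 24 h at 30° C. for Ole1, 40 h for SCD1/SCD5.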

Ole1 = biological target: T2, Ole1 (Saccharomyces cerevisiae, UniProt P21147); test: Growth inhibition of yeast strain expressing Ole1 as sole desaturase; settings: yeast strain expressing Ole1 as sole desaturase
T2 construct: expressed in transfected cells; host or cells: S. cerevisiae ole1Δ strain (W303 pdr1Δ pdr3Δ background), plasmid pRS316 with TDH3 promoter and CYC1 terminator
T2 sequence (P21147 1-510): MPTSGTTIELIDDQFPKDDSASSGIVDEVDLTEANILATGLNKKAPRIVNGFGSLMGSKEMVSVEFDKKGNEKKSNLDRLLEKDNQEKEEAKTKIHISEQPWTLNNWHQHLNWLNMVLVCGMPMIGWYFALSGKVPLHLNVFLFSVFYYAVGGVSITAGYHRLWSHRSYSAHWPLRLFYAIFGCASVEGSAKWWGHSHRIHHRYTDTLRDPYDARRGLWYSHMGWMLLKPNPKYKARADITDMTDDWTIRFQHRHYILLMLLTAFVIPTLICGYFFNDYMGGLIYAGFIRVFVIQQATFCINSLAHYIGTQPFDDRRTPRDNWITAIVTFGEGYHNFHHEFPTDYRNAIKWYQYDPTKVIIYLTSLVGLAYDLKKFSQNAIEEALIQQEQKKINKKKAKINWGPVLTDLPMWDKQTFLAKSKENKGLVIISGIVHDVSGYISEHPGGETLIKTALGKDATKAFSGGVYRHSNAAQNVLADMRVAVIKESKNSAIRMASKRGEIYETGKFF
In short: as §1

SCD5 = biological target: T3, SCD5 (Homo sapiens, UniProt Q86SK9); test: Growth inhibition of humanized yeast strain expressing SCD5 as sole desaturase; settings: humanized yeast strain expressing SCD5
T3 construct: host or cells: S. cerevisiae ole1Δ strain (W303 pdr1Δ pdr3Δ background), plasmid pRS316 with TDH3 promoter and CYC1 terminator
T3 sequence (Q86SK9 1-330): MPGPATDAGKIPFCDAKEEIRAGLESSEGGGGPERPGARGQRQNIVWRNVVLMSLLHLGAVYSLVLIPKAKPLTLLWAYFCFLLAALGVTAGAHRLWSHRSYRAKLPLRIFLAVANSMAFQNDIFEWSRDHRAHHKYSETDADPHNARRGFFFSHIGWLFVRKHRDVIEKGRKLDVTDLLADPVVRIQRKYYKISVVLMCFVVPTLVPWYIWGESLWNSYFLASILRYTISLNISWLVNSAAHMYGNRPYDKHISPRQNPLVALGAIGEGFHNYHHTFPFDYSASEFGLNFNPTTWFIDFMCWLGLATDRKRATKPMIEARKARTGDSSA
In short: as §1

| SMILES | SCD1 % Max Inhibition (SCD1) | IC50 (Ole1) | OLE1 % Max Inhibition (Ole1) | IC50 (SCD5) [µM] | SCD5 % Max Inhibition (SCD5) | IC50 (SCD1) [µM] |
| --- | --- | --- | --- | --- | --- | --- |
| Cc1nn(C)c2cc(-c3noc(C4CCN(C(=O)CNC(=O)c5ccccc5C(F)(F)F)CC4)n3)ccc12 [Compound 271] | 67.9% | > 45 µM | 11.7% | > 45 | 53.6% | – |
| CC(C)(CO)n1ncc2ccc(-c3noc(C4CCN(C(=O)CNC(=O)c5ccccc5)CC4)n3)cc21 [Compound 189] | 88.10% | > 45 µM | 98.14% | > 45 | 68.58% | > 45 |
| Cc1nn(C)c2cc(-c3noc(C4CCN(C(=O)CN5Cc6ccccc6C5=O)CC4)n3)cnc12 [Compound 200] | 79.67% | > 45 µM | 2.69% | 41.1 | 64.72% | > 45 |
| Cc1nn(C)c2cc(-c3noc(C4CCN(C(=O)C5CC(=O)N(c6ccccc6C#N)C5)CC4)n3)ccc12 (stereo not drawn) [Compound 170] | 103.19% | 40.4 µM | 67.97% | > 45 | 85.13% | > 45 |
| CCN1C(=O)CN(C)c2cc(-c3noc(C4CCN(C(=O)CNC(=O)c5ccccc5)CC4)n3)ccc21 [Compound 310] | 71.2% | > 45 µM | 7.1% | > 45 | 66.6% | – |
| COc1ccc(-c2noc(C3CCN(C(=O)[C@H](NC(=O)c4ccccc4)C4CC4)CC3)n2)cc1OC [Compound 190] | 83.53% | > 45 µM | 100.94% | > 45 | 19.31% | > 45 |
| Cc1nn(C)c2cc(-c3noc(C4CCN(C(=O)CN5Cc6ccccc6C5=O)CC4)n3)ccc12 [Compound 165] | 94.44% | > 45 µM | 2.01% | > 45 | 80.23% | > 45 |
| Cc1nn(C(C)C)c2cc(-c3noc(C4CCN(C(=O)OC(C)(C)C)CC4)n3)ccc12 [Compound 343] | 59.1% | > 45 µM | 84.7% | > 45 | 23.2% | – |
| CC(C)n1cc2ccc(-c3noc(C4CCN(C(=O)OC(C)(C)C)CC4)n3)cc2n1 [Compound 277] | 76.49% | > 45 µM | 94.36% | > 45 | 74.99% | – |
| Cc1nn(C)c2cc(-c3noc(C4CCN(C(=O)CNC(=O)c5ccc(C(F)(F)F)cc5)CC4)n3)ccc12 [Compound 317] | 30.0% | > 45 µM | 8.3% | > 45 | 20.6% | – |
| Cc1nn(C)c2cc(-c3noc(C4CCN(C(=O)CNC(=O)c5ccc(C#N)cc5)CC4)n3)ccc12 [Compound 267] | 58.58% | > 45 µM | 4.64% | > 45 | 11.33% | 37.8 |
| Cc1nn(C)c2cc(-c3noc(C4CCN(C(=O)c5ccccc5Cl)CC4)n3)ccc12 [Compound 288] | 8.71% | > 45 µM | 7.14% | > 45 | 7.52% | – |
| Cc1nn(C)c2cc(-c3noc(C4CCN(C(=O)[C@@H]5CC(=O)N(c6cccc(C#N)c6)C5)CC4)n3)ccc12 [Compound 306] | 67.6% and 63.32% | > 45 µM | 33.2% and 36.88% | > 45 | – | ≥ 45 |
| COc1cc(-c2noc(C3CCN(C(=O)CNC(=O)c4ccccc4)CC3)n2)ccc1OC(F)(F)F [Compound 253] | 62.07% | > 45 µM | 106.42% | > 45 | 63.11% | – |
| COc1cc(-c2noc(C3CCN(C(=O)CNC(=O)c4ccccc4)CC3)n2)ccc1OC1CC1 [Compound 249] | 80.12% | > 45 µM | 88.69% | 41.7 | 61.88% | – |
| CC(C)(CO)n1ncc2ccc(-c3noc(C4CCN(C(=O)C5CC(=O)N(c6ccccc6)C5)CC4)n3)cc21 (stereo not drawn) [Compound 203] | 84.83% | > 45 µM | 100.03% | > 45 | 80.12% | > 45 |
| COc1cccc(-c2noc(C3CC(=O)N(c4ccc(C)c(C)c4)C3)n2)c1 (stereo not drawn) [Compound 490] | 63.84% | > 45 µM | 96.38% | 35.1 | 50.39% | 38.8 |
| Cc1nn(C)c2cc(-c3noc(C4CCN(C(=O)C5CC(=O)N(c6cccc(C#N)c6)C5)CC4)n3)ccc12 (stereo not drawn) [Compound 168] | 114.58% and 74.07% | > 45 µM | 4.90% and 8.34% | > 45 | – | > 45 |
| Cc1nn(C)c2cc(-c3noc(C4CCN(C(=O)[C@@H]5CC(=O)N(c6ccc(C#N)cc6)C5)CC4)n3)ccc12 [Compound 308] | 81.6% and 61.05% | > 45 µM and 27.2 µM | 63.7% and 49.30% | > 45 | 15.5% and 6.81% | ≥ 45 |
| N#Cc1ccc(-c2noc(C3CCN(C(=O)[C@H]4CC(=O)N(c5ccccc5)C4)CC3)n2)s1 [Compound 247] | 79.89% | > 45 µM | 98.49% | > 45 | 72.46% | – |
| COc1ccc(-c2noc(CCNC(=O)COc3cc(O)c4c(c3)OC(C)(C)CC4=O)n2)cc1OC [Compound 486] | 76.95% | > 45 µM | 103.51% | > 45 | 72.76% | – |
